Results published in PubChem BioAssay AID330 (DTP/NCI, 2004).
Where “and” joins values, the source holds several entries; their conditions need not be identical. Equal values may be shown once. Toxic doses and inconclusive results are not listed. The calls were made as follows: active = survival T/C of 150% or more; inactive = T/C below 125% in these data.

System: P388 leukemia ip, CD2F1 mice, survival T/C
Experiment: NCI In Vivo Anticancer Drug Screen. Data for tumor model P388 Leukemia (intraperitoneal) in CD2F1 (CDF1) mice
Conditions: endpoint: median survival time, higher = longer survival
Procedure, shortened: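 Mice carrying the transplanted tumor received test compound or vehicle. Survival was recorded in each group, and the value is the treated-group measurement divided by that of the vehicle-treated control group.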

[1] = dose: 50.0 mg/kg/injection, schedule: Q01DX009 (ip), vehicle: saline
[2] = dose: 100.0 mg/kg/injection, schedule: Q01DX009 (ip), vehicle: saline
[3] = dose: 200.0 mg/kg/injection, schedule: Q01DX009 (ip), vehicle: saline
[4] = dose: 60.0 mg/kg/injection, schedule: Q01DX005 (ip), vehicle: saline with Tween-80
[5] = dose: 120.0 mg/kg/injection, schedule: Q01DX005 (ip), vehicle: saline with Tween-80
[6] = dose: 240.0 mg/kg/injection, schedule: Q01DX005 (ip), vehicle: saline with Tween-80
[7] = dose: 50.0 mg/kg/injection, schedule: Q01DX009 (ip), vehicle: Klucel (hydroxypropylcellulose) (HPC)
[8] = dose: 100.0 mg/kg/injection, schedule: Q01DX009 (ip), vehicle: Klucel (hydroxypropylcellulose) (HPC)
[9] = dose: 200.0 mg/kg/injection, schedule: Q01DX009 (ip), vehicle: Klucel (hydroxypropylcellulose) (HPC)
[10] = dose: 50.0 mg/kg/injection, schedule: Q01DX005 (ip), vehicle: Klucel (hydroxypropylcellulose) (HPC)
[11] = dose: 100.0 mg/kg/injection, schedule: Q01DX005 (ip), vehicle: Klucel (hydroxypropylcellulose) (HPC)
[12] = dose: 25.0 mg/kg/injection, schedule: Q01DX009 (ip), vehicle: Klucel (hydroxypropylcellulose) (HPC)
[13] = dose: 200.0 mg/kg/injection, schedule: Q01DX005 (ip), vehicle: Klucel (hydroxypropylcellulose) (HPC)
[14] = dose: 50.0 mg/kg/injection, schedule: Q01DX009 (ip), vehicle: saline with Tween-80
[15] = dose: 100.0 mg/kg/injection, schedule: Q01DX009 (ip), vehicle: saline with Tween-80

Measured: T/C

CC(N)=NC(C)C
inactive: [1] 101 % of control | [2] 101 % of control | [3] 99 % of control

Oc1ccc(O)c2nc3ccccc3nc12
inactive: dose: 1.56 mg/kg/injection, schedule: Q01DX009 (ip), vehicle: distilled water + Tween-80 104 % of control | dose: 3.12 mg/kg/injection, schedule: Q01DX009 (ip), vehicle: distilled water + Tween-80 105 % of control | dose: 6.25 mg/kg/injection, schedule: Q01DX009 (ip), vehicle: distilled water + Tween-80 104 % of control and 97 % of control

Cc1oc2ccccc2c(=O)c1Cn1cnc2ccc([N+](=O)[O-])cc21
inactive: [4] 102 % of control | [5] 93 % of control | [6] 91 % of control

O=C(CC(NO)c1ccccc1)NO (stereo not drawn)
inactive: [7] 99 % of control | [8] 105 % of control | [9] 115 % of control

Oc1c(Cl)cc(Cl)cc1C=NCCSc1ccc(Cl)cc1
inactive: [10] 99 % of control and 108 % of control and 111 % of control | dose: 100.0 mg/kg/injection, schedule: Q01DX005 (ip), vehicle: DMSO 115 % of control | [11] 105 % of control and 115 % of control and 93 % of control | dose: 200.0 mg/kg/injection, schedule: Q01DX005 (ip), vehicle: DMSO 117 % of control | dose: 400.0 mg/kg/injection, schedule: Q01DX005 (ip), vehicle: DMSO 118 % of control | dose: 400.0 mg/kg/injection, schedule: Q01DX005 (ip), vehicle: Klucel (hydroxypropylcellulose) (HPC) 101 % of control and 120 % of control | dose: 600.0 mg/kg/injection, schedule: Q01DX005 (ip), vehicle: DMSO 108 % of control

O=C1NC(=O)[C@H]2C[C@H]3C(=O)NC(=O)[C@H]3[C@@H]12
inactive: [12] 99 % of control | [7] 101 % of control | [8] 102 % of control and 107 % of control | [9] 101 % of control and 107 % of control | dose: 400.0 mg/kg/injection, schedule: Q01DX009 (ip), vehicle: Klucel (hydroxypropylcellulose) (HPC) 96 % of control

O=C(CO)C(OC1OC(CO)C(O)C(O)C1O)C(O)C(O)CO (stereo not drawn)
inactive: dose: 50.0 mg/kg/injection, schedule: Q01DX005 (ip), vehicle: saline 109 % of control | dose: 100.0 mg/kg/injection, schedule: Q01DX005 (ip), vehicle: saline 97 % of control | dose: 200.0 mg/kg/injection, schedule: Q01DX005 (ip), vehicle: saline 109 % of control

O=C(O)CC[P+](c1ccccc1)(c1ccccc1)c1ccccc1
inactive: dose: 25.0 mg/kg/injection, schedule: Q01DX009 (ip), vehicle: water 105 % of control | dose: 50.0 mg/kg/injection, schedule: Q01DX009 (ip), vehicle: water 102 % of control | dose: 100.0 mg/kg/injection, schedule: Q01DX009 (ip), vehicle: water 105 % of control | dose: 200.0 mg/kg/injection, schedule: Q01DX009 (ip), vehicle: water 95 % of control | dose: 400.0 mg/kg/injection, schedule: Q01DX009 (ip), vehicle: water 94 % of control

CCOC(=O)c1nc(C)[nH]c1C
inactive: [7] 100 % of control | [8] 95 % of control | [9] 100 % of control

CN1CCC(OC(=O)Oc2ccccc2)CC1
inactive: [1] 105 % of control | [2] 92 % of control | [3] 102 % of control

CC(C)CC(NC(=O)C(CS)NC(=O)CN1C(=O)CCC1=O)C(N)=O (stereo not drawn)
inactive: [10] 105 % of control | [11] 100 % of control | [13] 101 % of control

[N-]=[N+]=NC(=O)Nc1ccccc1F
inactive: dose: 3.75 mg/kg/injection, schedule: Q01DX005 (ip), vehicle: Klucel (hydroxypropylcellulose) (HPC) 96 % of control | dose: 7.5 mg/kg/injection, schedule: Q01DX005 (ip), vehicle: Klucel (hydroxypropylcellulose) (HPC) 90 % of control and 97 % of control | dose: 15.0 mg/kg/injection, schedule: Q01DX005 (ip), vehicle: Klucel (hydroxypropylcellulose) (HPC) 104 % of control

CCCCCCOC(=O)c1ccc(OC)cc1
inactive: [14] 104 % of control | [15] 106 % of control | dose: 200.0 mg/kg/injection, schedule: Q01DX009 (ip), vehicle: saline with Tween-80 108 % of control

COc1ccc(NC2=NCCS2)cc1
inactive: dose: 50.0 mg/kg/injection, schedule: Q04DX003 (ip), vehicle: saline with Tween-80 100 % of control | dose: 100.0 mg/kg/injection, schedule: Q04DX003 (ip), vehicle: saline with Tween-80 100 % of control | dose: 200.0 mg/kg/injection, schedule: Q04DX003 (ip), vehicle: saline with Tween-80 100 % of control

Cc1cc(O)c2c(c1)C(=O)c1cc(O)cc(OC3OC(CO)C(O)C(O)C3O)c1C2=O (stereo not drawn)
inactive: dose: 5.0 mg/kg/injection, schedule: Q01DX009 (ip), vehicle: saline 105 % of control | dose: 10.0 mg/kg/injection, schedule: Q01DX009 (ip), vehicle: saline 105 % of control | dose: 20.0 mg/kg/injection, schedule: Q01DX009 (ip), vehicle: saline 89 % of control

CN(C)c1ccc(/C=N/NC(=O)c2ccccc2N)c(Cl)c1
inactive: [4] 96 % of control | [5] 89 % of control

O=CN1CCc2cc3c(cc2C1Cc1cc2c(cc1Br)OCO2)OCO3 (stereo not drawn)
inactive: dose: 25.0 mg/kg/injection, schedule: Q01DX001 (ip), vehicle: saline + alcohol 99 % of control | dose: 50.0 mg/kg/injection, schedule: Q01DX001 (ip), vehicle: saline + alcohol 103 % of control | dose: 100.0 mg/kg/injection, schedule: Q01DX001 (ip), vehicle: saline + alcohol 100 % of control

O=C1c2ccccc2C(=O)N1CC[P+](c1ccc(Cl)cc1)(c1ccc(Cl)cc1)c1ccc(Cl)cc1
inactive: dose: 25.0 mg/kg/injection, schedule: Q01DX009 (ip), vehicle: other 95 % of control

CCc1cc2c(cc1C(C)=O)C(C)(C)CCC2(C)C
inactive: [14] 94 % of control | [15] 110 % of control

CN1CCCN(C)C1c1cc(Br)ccc1O
inactive: dose: 6.25 mg/kg/injection, schedule: Q01DX009 (ip), vehicle: saline sonified 95 % of control | dose: 12.5 mg/kg/injection, schedule: Q01DX009 (ip), vehicle: saline sonified 90 % of control | dose: 25.0 mg/kg/injection, schedule: Q01DX009 (ip), vehicle: saline sonified 100 % of control

CN(C)c1ccc(/C=N/O)cc1
inactive: dose: 12.5 mg/kg/injection, schedule: Q01DX009 (ip), vehicle: Klucel (hydroxypropylcellulose) (HPC) 86 % of control | [12] 101 % of control and 103 % of control and 110 % of control | [7] 103 % of control and 113 % of control | [8] 104 % of control and 113 % of control | [9] 96 % of control

Cn1c2ccccc2c2nnc(N/N=C/c3ccccn3)nc21
inactive: dose: 100.0 mg/kg/injection, schedule: Q04DX002 (ip), vehicle: saline with Tween-80 98 % of control and 111 % of control and 113 % of control | dose: 200.0 mg/kg/injection, schedule: Q04DX002 (ip), vehicle: saline with Tween-80 106 % of control and 113 % of control and 114 % of control | dose: 400.0 mg/kg/injection, schedule: Q04DX002 (ip), vehicle: saline with Tween-80 106 % of control and 113 % of control | dose: 800.0 mg/kg/injection, schedule: Q04DX002 (ip), vehicle: saline with Tween-80 104 % of control and 114 % of control

CCOC(=O)c1[nH]cnc1N
inactive: dose: 15.0 mg/kg/injection, schedule: Q01DX005 (ip), vehicle: saline with Tween-80 104 % of control | dose: 30.0 mg/kg/injection, schedule: Q01DX005 (ip), vehicle: saline with Tween-80 101 % of control | [4] 104 % of control and 106 % of control | [5] 100 % of control | [6] 104 % of control

C[C@]12CCC(=O)C(O)=C1CC[C@H]1[C@@H]3CCC(=O)[C@@]3(C)CC[C@@]12O
inactive: dose: 12.5 mg/kg/injection, schedule: Q01DX005 (ip), vehicle: Klucel (hydroxypropylcellulose) (HPC) 101 % of control | dose: 25.0 mg/kg/injection, schedule: Q01DX005 (ip), vehicle: Klucel (hydroxypropylcellulose) (HPC) 109 % of control | [10] 104 % of control | [11] 104 % of control | [13] 96 % of control

NNc1nnnc2c1sc1ccccc12
inactive: dose: 100.0 mg/kg/injection, schedule: Q01DX001 (ip), vehicle: saline with Tween-80 89 % of control | dose: 400.0 mg/kg/injection, schedule: Q01DX001 (ip), vehicle: saline with Tween-80 93 % of control

CCc1nc(N)nc(-c2nc(N)nc(CC)c2C)c1C
inactive: dose: 60.0 mg/kg/injection, schedule: Q01DX005 (ip), vehicle: saline 106 % of control | dose: 120.0 mg/kg/injection, schedule: Q01DX005 (ip), vehicle: saline 104 % of control | dose: 240.0 mg/kg/injection, schedule: Q01DX005 (ip), vehicle: saline 108 % of control
